# Source: article PMC6357742, “Porphyromonas gingivalis in Alzheimer’s disease brains: Evidence for disease causation and treatment with small-molecule inhibitors” (Science Advances, 2019)
# Legend:
# [1] = tested on: differentiated SH-SY5Y cells exposed to RgpB and Kgp; test: Gingipain-induced aggregation of differentiated SH-SY5Y cells; format: cell-based, human; conditions: pretreatment of gingipains; RgpB and Kgp 10 μg/ml, 24 hours
# [2] = Oral pharmacokinetic properties and CNS penetration; conditions: in vivo
# [3] = target: thrombin (Homo sapiens, UniProt P00734); test: Cellular protease profiling; format: biochemical
# [4] = tested on: calpain; test: Cellular protease profiling; format: biochemical
# [5] = target: DPP4 (Homo sapiens, UniProt P27487); test: Cellular protease profiling; format: biochemical
# [6] = target: T1, Kgp (Porphyromonas gingivalis, UniProt B2RLK2); format: biochemical, P. gingivalis; conditions: recovery of enzyme activity following dilution of enzyme/inhibitor complexes
# [7] = tested on: P. gingivalis; test: Kgp-dependent growth of P. gingivalis in defined medium; format: cell-based; conditions: 500 nM, over 43 hours
# [8] = target: T1, Kgp; format: binding, P. gingivalis; conditions: human oral subgingival plaque, preincubation with COR388
# [9] = target: FXa (Homo sapiens, UniProt P00742); test: Cellular protease profiling; format: biochemical
# [10] = target: T2, FVIIa (Homo sapiens, UniProt P08709); test: Cellular protease profiling; format: biochemical
# T2 sequence (P08709 213-466 limits assumed): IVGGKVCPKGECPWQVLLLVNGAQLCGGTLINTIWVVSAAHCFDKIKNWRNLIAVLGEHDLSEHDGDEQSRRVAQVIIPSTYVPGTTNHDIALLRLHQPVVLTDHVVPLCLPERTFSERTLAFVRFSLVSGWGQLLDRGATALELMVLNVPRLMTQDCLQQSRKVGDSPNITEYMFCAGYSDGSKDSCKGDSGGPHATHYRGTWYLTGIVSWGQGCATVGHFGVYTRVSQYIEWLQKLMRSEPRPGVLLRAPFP
# T2 sequence (P08709 61-212 partner limits assumed): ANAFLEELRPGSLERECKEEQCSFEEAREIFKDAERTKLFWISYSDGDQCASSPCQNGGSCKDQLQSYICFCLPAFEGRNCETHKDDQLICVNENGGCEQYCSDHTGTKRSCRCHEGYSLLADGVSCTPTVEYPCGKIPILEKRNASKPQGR
# [11] = target: cathepsin S (Homo sapiens, UniProt P25774); test: Cellular protease profiling; format: biochemical
# [12] = target: plasmin (Homo sapiens, UniProt P00747); test: Cellular protease profiling; format: biochemical
# [13] = target: caspase family enzymes; test: Cellular protease profiling; format: biochemical
# [14] = tested on: P. gingivalis; format: cell-based
# [15] = tested on: P. gingivalis W83; test: P. gingivalis oral infection in mice, Experiment 3 (brain qPCR, Aβ1–42 and TNFα ELISA); format: in vivo, BALB/c mice; conditions: days 36 to 70
# [16] = tested on: deubiquitinating peptidases; test: Cellular protease profiling; format: biochemical
# [17] = target: Kgp (Porphyromonas gingivalis, UniProt Q51817); format: binding, P. gingivalis
# [18] = target: BACE1 (Homo sapiens, UniProt P56817); test: Cellular protease profiling; format: biochemical
# [19] = target: tryptase; test: Cellular protease profiling; format: biochemical
# [20] = tested on: proteasome; test: Cellular protease profiling; format: biochemical
# [21] = tested on: SH-SY5Y cells infected with P. gingivalis W83; test: AlamarBlue viability of SH-SY5Y cells challenged with P. gingivalis; format: cell-based, human; conditions: W83 strain, MOI of 400, 48 hours
# [22] = tested on: P. gingivalis; test: Antimicrobial effects of Aβ on P. gingivalis (LIVE/DEAD BacLight); format: cell-based; parameters: dose or concentration left out as unconfirmed; conditions: 37°C, anaerobic, 24 hours
# [23] = 10 and 30 mg/kg oral twice daily
compound,measurement,setting,value
NC(=O)CI [iodoacetamide],gingipain-induced cell aggregation,[1],prevented gingipain-induced aggregation
NCCCC[C@H](NC(=O)C1CCCC1)C(=O)COc1c(F)ccc(F)c1F [COR388],CNS penetration,[2],significant CNS penetration
same,oral bioavailability / oral pharmacokinetics,[2]; po,superior oral pharmacokinetic
same,IC50,[3],> 10 µM
same,IC50,[4],> 10 µM
same,IC50,[5],> 10 µM
same,mode of inhibition,[6],irreversible binding kinetics
same,growth of P. gingivalis in defined growth medium,[7],inhibited the growth
same,Kgp target engagement ex vivo (COR553 probe binding after preincubation),[8],blocked probe binding to the active site
same,IC50,[9],> 10 µM
same,IC50,[10],> 10 µM
same,IC50,[11],> 10 µM
same,IC50,[12],> 10 µM
same,IC50,[13],> 10 µM
same,development of resistance on repeat passaging,[14],did not develop
same,Aβ1–42 level in brain tissue,[15]; 3 mg/kg oral twice daily,did not reduce
same,P. gingivalis load in brain tissue,[15]; 3 mg/kg oral twice daily,some reduction
same,TNFα level in brain tissue,[15]; 3 mg/kg oral twice daily,did not reduce
same,Aβ1–42 level in brain tissue compared to infected vehicle,[15]; [23],reduced
same,P. gingivalis load in brain tissue compared to infected vehicle,[15]; [23],reduced
same,TNFα level in brain tissue compared to infected vehicle,[15]; [23],reduced
same,IC50,[16],> 10 µM
same,Kgp target engagement (COR553 probe binding after preincubation),[17],block of COR553 activity probe binding
same,IC50,[18],> 10 µM
same,IC50,[19],> 10 µM
same,IC50,[20],> 10 µM
C[C@H]1c2cccc(O)c2C(=O)C2=C(O)[C@]3(O)C(=O)C(C(N)=O)=C(O)[C@@H](N(C)C)[C@@H]3[C@@H](O)[C@@H]21 [doxycycline],protection against P. gingivalis–induced cell death,[21],did not protect the cells
CC(C)[C@H](O)C(=O)N[C@@H](C)C(=O)N[C@@H]1C(=O)N(C)CCc2ccccc21 [semagacestat],protection against P. gingivalis–induced cell death,[21],no protective effect
COc1c(N2C[C@@H]3CCCN[C@@H]3C2)c(F)cc2c(=O)c(C(=O)O)cn(C3CC3)c12 [moxifloxacin],protection against P. gingivalis–induced cell death,[21],did not protect the cells
same,development of resistance on repeat passaging,[14],complete resistance
same,increase of minimum inhibitory concentration (MIC) on passaging,[14]; 12 passages,over 1000 fold
"Aβ1–42: Recombinant Aβ (1-42) Ultra-Pure, Ammonium Hydroxide (rProtein)",viability of P. gingivalis,[22],decreased viability
